Data from patent US20090312414A1, “Treatment Of Lower Urinary Tract Dysfunction With CB2-Receptor-Selective Agonists” (priority 2008, published 2009).

How the values were obtained:
conscious normal rats = assay: Cystometry in normal conscious rats; format: in vivo, rat; details: for Residual volume (RV): ns
Source text: This study involved a determination of the acute effect of the compound of Formula I, a peripherally-selective, CB2-receptor-selective agonist, on normal bladder function in normal conscious freely moving rats using cystometry.
Female Sprague-Dawley rats, weighing 225-300 g, were maintained under standard laboratory conditions with a 12:12 light/dark cycle and free access to food pellets and water. After surgical procedures, rats were individually caged to prevent chewing of the catheters. For surgical procedures, the rats were anesthetized by intraperitoneal injection of 75 mg/kg ketamine (Ketalar®, Pfizer, Sweden) and 15 mg/kg xylazine (Rompun®, Bayer, Sweden).
The bladder was exposed via a mid-line incision of the lower abdomen. A saline-filled polyethylene catheter (PE-50, Clay-Adams, Parsippany, N.J.) with a cuff was inserted into the dome of the bladder and held in place with a purse string suture. The catheter was tunneled subcutaneously and anchored at the neck with a silk ligature, and the free end of the catheter was sealed.
In the same surgical session as for implantation of the bladder catheter, access to the femoral vein was given via the mid-line incision of the lower abdomen after careful blunt dissection of the subcutaneous fascias and the femoral vascular sheath. A stretched PE-50 catheter filled with heparinized saline was introduced into the femoral vein and forwarded with its tip in the iliac vein. The catheter was then secured in position by two ligatures, tunneled subcutaneously to the skin of the back and anchored as described above, and the free end of the catheter was sealed.
The appropriate solution of the compound of Formula I was prepared on the day of the experiment using phosphate-buffered saline (“PBS”) as the vehicle. The compound of Formula I was dissolved to obtain a 10 mg/ml stock solution. For the 3 mg/kg dose, each animal was administered individually weight-controlled amounts in a volume of approximately 100 μl IV of the stock solution. For lower doses, appropriate dilutions of the stock solution were made and animals were administered similar volumes containing 0.3 or 1 mg/kg. […] After administration of the compound of Formula I, 100 μl of heparinized saline was also infused to flush the IV catheter, and a 90 to 120-minute observation period was allowed until final stable micturitions were obtained. Each animal served as its own control.
Cystometry was performed without anesthesia three days after the implantation of bladder catheters in normal rats. The conscious rats were placed in metabolic cages without restraint and the bladder catheters were connected via a T-tube to a pressure transducer (P23 DC; Statham Instruments Inc., Oxnard, Calif.) and a microinjection pump (CMA 100; Carnegie Medicine AB, Solna, Sweden). Micturition volumes were recorded with a fluid collector connected to a force displacement transducer (FT 03 D, Grass Instrument Co., Quincy, Mass.). Room-temperature saline was infused into the bladder continuously at a rate of 10 ml/h. Pressures and micturition volumes were recorded continuously with Acq Knowledge 3.8.1 software and a MP100 data acquisition system (Biopac Syst. Inc. Santa Barbara, Calif.) connected to a Grass polygraph (Model 7E, Grass Instrument Co). At the beginning of cystometry, the bladder was emptied via the bladder catheter.
The following urodynamic parameters were investigated: micturition pressure (“MP;” maximum bladder pressure during micturition), threshold pressure (“ThP”; bladder pressure at start of detrusor contraction), flow pressure (“FP”; bladder pressure when urethra opens), micturition interval (“MI”; time between two micturitions), micturition volume (“MV”; volume of the expelled urine), and residual volume (“RV”; volume left in bladder after a micturition). […]

[1] = system: isolated detrusor from rats with partial urethral obstruction; assay: Carbachol-induced contractions in bladder strips from PUO rats; format: ex vivo, rat; details: strips from PUO rats treated for 2 weeks
Method: (§1) The effect of chronic treatment with the compound of Formula I was studied in contractility studies with isolated bladder strips from rats with PUO after 2 weeks of treatment with the compound of Formula I.
(§2) Bladder strips (2×2×6 mm) were dissected from PUO rat bladders. Silk ligatures were applied at both ends of the preparations which then were mounted on metal prongs in 5 ml aerated (95% O2 and 5% CO2) tissue baths (37° C.) containing Krebs solution. Mechanical activity was registered with Grass FT 03C force transducers connected to a Grass Polygraph model 7E. The preparations were stretched to a tension of approximately 10 mN and left to equilibrate for 45 minutes to attain a stable resting tonus. To establish the viability of the preparations and to determine a standard contractile level, preparations were exposed to a 60 mM K^+ Krebs solution. The effects of cumulative addition of carbachol, a non-selective muscarininc agonist (1 nM-0.1 mM), were studied in strip preparations from vehicle-treated and compound of Formula I-treated rats with PUO.
Transmural activation of nerves was performed with two platinum electrodes, placed in parallel to the sides of the strips in the organ baths. […] All contractile responses were expressed as a percentage of the contraction elicited by 60 mM K^+ Krebs solution. […]

[2] = system: isolated detrusor from rats with partial urethral obstruction; assay: Nerve-induced contractions (electrical field stimulation) in bladder strips from PUO rats; format: ex vivo, rat; details: for Nerve-induced contractions: % of 60 mM K+ responses, preparations from treated PUO rats
Method: as §1, §2
Transmural activation of nerves was performed with two platinum electrodes, placed in parallel to the sides of the strips in the organ baths. The nerves of the preparations were stimulated by means of a Grass S 48 stimulator, delivering single square-wave pulses at supramaximum voltage with duration of 0.5 ms. The polarity was changed after each pulse by means of a polarity-changing unit. The train duration was 5 seconds and the train interval 120 seconds. Frequency-response relationships were investigated at supramaximum voltage in all preparations stimulated electrically. […] All contractile responses were expressed as a percentage of the contraction elicited by 60 mM K^+ Krebs solution. Simultaneous curve fit analysis was performed using GraphPad Prism v4.0 to determine statistical significance for increased efficacy of the compound of Formula I treatment upon muscle strips. Briefly, dose-response curves were tested comparing a variable slope model vs. a fixed slope (m=1) model.

SMILES: CCCCCCC(C)(C)c1cc(O)c([C@H]2CC(=O)[C@H]3C[C@@H]2C3(C)C)c(OC(=O)/C=C/C(=O)O)c1 [Formula I]
- Basal pressure (BP) (conscious normal rats; 0.3 mg/kg IV): 4.7±2.0 cmH2O
- Micturition pressure (MP) (conscious normal rats; 0.3 mg/kg IV): 64.3±12.3 cmH2O
- Rats responding with increased MI (conscious normal rats; 0.3 mg/kg IV): 5 out of 8
- Rats responding with increased MV (conscious normal rats; 0.3 mg/kg IV): 5 out of 8
- Rats responding with increased ThP (conscious normal rats; 0.3 mg/kg IV): 5 out of 8
- Bladder capacity (BC) (conscious normal rats; 0.3 mg/kg IV, not significant): 0.98 ± 0.21 mL
- Flow pressure (FP) (conscious normal rats; 0.3 mg/kg IV, not significant): 34.1±8.8 cmH2O
- Micturition interval (MI) (conscious normal rats; 0.3 mg/kg IV, not significant): 260 ± 69 s
- Micturition volume (MV) (conscious normal rats; 0.3 mg/kg IV, not significant): 0.93 ± 0.21 mL
- Threshold pressure (ThP) (conscious normal rats; 0.3 mg/kg IV, not significant): 16.5±2.2 cmH2O
- Residual volume (RV) (conscious normal rats; 0.3 mg/kg IV): 0.01 ± 0.01 mL
- Basal pressure (BP) (conscious normal rats; 1 mg/kg IV): 3.7±1.2 cmH2O
- Micturition pressure (MP) (conscious normal rats; 1 mg/kg IV): 65.1±8.6 cmH2O
- Rats responding with increased MI (conscious normal rats; 1 mg/kg IV): 3 out of 8
- Rats responding with increased MV (conscious normal rats; 1 mg/kg IV): 6 out of 8
- Rats responding with increased ThP (conscious normal rats; 1 mg/kg IV): 1 out of 8
- Bladder capacity (BC) (conscious normal rats; 1 mg/kg IV, not significant): 0.91 ± 0.17 mL
- Flow pressure (FP) (conscious normal rats; 1 mg/kg IV, not significant): 26.0±2.4 cmH2O
- Micturition interval (MI) (conscious normal rats; 1 mg/kg IV, not significant): 251 ± 63 s
- Micturition volume (MV) (conscious normal rats; 1 mg/kg IV, not significant): 0.90 ± 0.17 mL
- Threshold pressure (ThP) (conscious normal rats; 1 mg/kg IV, not significant): 12.6±2.0 cmH2O
- Residual volume (RV) (conscious normal rats; 1 mg/kg IV): 0.01 ± 0.01 mL
- Basal pressure (BP) (conscious normal rats; 3 mg/kg IV): 9.0±4.3 cmH2O
- Micturition pressure (MP) (conscious normal rats; 3 mg/kg IV): 87.3±18.9 cmH2O
- Rats responding with increased FP (conscious normal rats; 3 mg/kg IV): 6 out of 8
- Rats responding with increased MI (conscious normal rats; 3 mg/kg IV): 7 out of 8
- Rats responding with increased MV (conscious normal rats; 3 mg/kg IV): 7 out of 8
- Rats responding with increased ThP (conscious normal rats; 3 mg/kg IV): 7 out of 8
- Threshold pressure (ThP) (conscious normal rats; 3 mg/kg IV, ANOVA ns, paired t-test vs. baseline p=0.05): 38.1±13.9 cmH2O
- Flow pressure (FP) (conscious normal rats; 3 mg/kg IV, not significant): 62.3±18.4 cmH2O
- Residual volume (RV) (conscious normal rats; 3 mg/kg IV): 0.02 ± 0.02 mL
- Bladder capacity (BC) (conscious normal rats; 3 mg/kg IV, p<0.001 vs. baseline, p<0.005 vs. vehicle): 1.42 ± 0.18 mL
- Micturition volume (MV) (conscious normal rats; 3 mg/kg IV, p<0.001 vs. baseline, p<0.01 vs. vehicle): 1.4 ± 0.2 mL
- Micturition interval (MI) (conscious normal rats; 3 mg/kg IV, p<0.02 vs. baseline): 423 ± 63 s
- Animals responding with an increase or decrease in FP (conscious normal rats; 0.3 and 1 mg/kg IV): 50%
- Animals with a decrease in BP (conscious normal rats; all doses (0.3, 1, 3 mg/kg IV)): 37.5-50 % of rats
- Animals with an increase in BP (conscious normal rats; all doses (0.3, 1, 3 mg/kg IV)): 25-37.5 % of rats
- Animals with no change in BP (conscious normal rats; all doses (0.3, 1, 3 mg/kg IV)): 12.5-25 % of rats
- Rats responding with increased BC (conscious normal rats; all doses (0.3, 1, 3 mg/kg IV)): 6 out of 8
- Carbachol-induced detrusor contractions vs vehicle-treated PUO rats ([1]; carbachol 1 nM to 1 μM): no differences
- Maximal response to carbachol vs vehicle-treated PUO rats ([1]; simultaneous curve fitting, p<0.0008): significant increase
- Nerve-induced contractions vs untreated PUO rats ([2]; 1 Hz, bladders from PUO rats treated for 2 weeks): significantly larger contractions
- Nerve-induced contractions ([2]; 8 Hz, p<0.01): 83±14%
- Nerve-induced contractions ([2]; 16 Hz, p<0.005): 120±16%
- Nerve-induced contractions ([2]; 32 Hz, p<0.006): 146±16%
